In patent US20250171432A1, “COMPOUNDS AND METHODS OF USE” (Tango Therapeutics, Inc., priority 2022, published 2025):
Like-named read-outs stand apart in the source and are kept apart here.

Legend:
Type in all cases: cell-based
[1] = test system: HAP1 MTAP-deleted cell line; assay: Viability assay (CellTiter-Glo), HAP1 MTAP-deleted; details: Homo sapiens, 168 h, HAP1 MTAP-deleted cells, 7 days
How it was run: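 HAP1 MTAP-deleted and MTAP-intact cells seeded, then dosed next day (n=3, 0.2% DMSO) and grown 7 days. Viability by CellTiter-Glo luminescence, expressed as % of DMSO control per cell line.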

[2] = test system: SDMA (PRMT5 activity) in HAP1 MTAP-intact cell line; assay: SDMA in-cell western assay, HAP1 MTAP-intact
[3] = test system: SDMA (PRMT5 activity) in HAP1 MTAP-deleted cell line; assay: SDMA in-cell western assay, HAP1 MTAP-deleted
[4] = Homo sapiens, HAP1, 24 h, SDMA in-cell western, HAP1 MTAP-intact cells, 24 hours compound incubation
[5] = Homo sapiens, SDMA in-cell western, HAP1 MTAP-deleted cells, 24 hours compound incubation
[6] = ratio of SDMA IC50 in HAP1 MTAP-intact to HAP1 MTAP-deleted cell line
[7] = Homo sapiens, SDMA in-cell western, HAP1 MTAP-intact cells, 24 hours compound incubation

Q: What does the source list for `COc1ncc(NC(=O)C(=O)N2C[C@@H](C)CC[C@@H]2c2ccc3sc(C4CCNCC4)nc3c2)cc1C(N)=O` [Compound 52, 2-methoxy-5-(2-((2R,5S)-5-methyl-2-(2-(piperidin-4-yl)benzo[d]thiazol-5-yl)piperidin-1-yl)-2-oxoacetamido)nicotinamide]?
A: IC50 [1]: 0.1 to 1 µM; IC50 [2, 4]: > 0.05 µM; IC50 [3, 5]: 0.005 to 0.05 µM; IC90 [3, 5]: 0.075 to 0.125 µM; Hap1 MTAP intact/deleted ratio [3, 6]: B (“B” indicates an IC50 ratio greater than or equal to 15 fold but lower than 30 fold)

Q: What does the source list for `CCc1cc(NC(=O)C(=O)N2C[C@@H](C)CC[C@@H]2c2ccc3oc(C4CCN(C)CC4)nc3c2)cnc1N` [Compound 53, N-(6-amino-5-ethylpyridin-3-yl)-2-((2R,5S)-5-methyl-2-(2-(1-methylpiperidin-4-yl)benzo[d]oxazol-5-yl)piperidin-1-yl)-2-oxoacetamide]?
A: IC50 [1]: < 0.1 µM; IC50 [2, 7]: > 0.05 µM; IC50 [3, 5]: < 0.005 µM; IC90 [3, 5]: < 0.075 µM; Hap1 MTAP intact/deleted ratio [3, 6]: A (“A” indicates an IC50 ratio greater than or equal to 30 fold)

Q: Which results are given for `CCc1cc(NC(=O)C(=O)N2C[C@@H](C)CC[C@@H]2c2ccc3cc(C#N)cnc3c2)cnc1N` [Compound 54]?
A: IC50 [1]: 0.1 to 1 µM; IC50 [2, 4]: > 0.05 µM; IC50 [3, 5]: 0.005 to 0.05 µM; IC90 [3, 5]: > 0.125 µM; Hap1 MTAP intact/deleted ratio [3, 6]: A (“A” indicates an IC50 ratio greater than or equal to 30 fold)

Q: What does the source list for `CCc1cc(NC(=O)C(=O)N2C[C@@H](C)CC[C@@H]2c2ccc3sc(C[C@H](C)N(C)C)nc3c2)cnc1N` [Compound 55, N-(6-amino-5-ethylpyridin-3-yl)-2-((2R,5S)-2-(2-((S)-2-(dimethylamino)propyl)benzo[d]thiazol-5-yl)-5-methylpiperidin-1-yl)-2-oxoacetamide]?
A: IC50 [1]: < 0.1 µM; IC50 [2, 4]: 0.005 to 0.05 µM; IC50 [3, 5]: < 0.005 µM; IC90 [3, 5]: < 0.075 µM; Hap1 MTAP intact/deleted ratio [3, 6]: B (“B” indicates an IC50 ratio greater than or equal to 15 fold but lower than 30 fold)

Q: With `CCc1cc(NC(=O)C(=O)N2C[C@@H](C)CC[C@@H]2c2cccc(OC3CCN(C)CC3)c2)cnc1N` [Compound 58, N-(6-amino-5-ethylpyridin-3-yl)-2-((2R,5S)-5-methyl-2-(3-((1-methylpiperidin-4-yl)oxy)phenyl)piperidin-1-yl)-2-oxoacetamide] as the compound, how does the IC50 [1] read?
A: < 0.1 µM

Q: And the IC50 [2, 4]?
A: > 0.05 µM

Q: What about the IC50 [3, 5] of the same compound?
A: < 0.005 µM

Q: And the IC90 [3, 5]?
A: < 0.075 µM

Q: What about the “Hap1 MTAP intact/deleted ratio” value [3, 6] of the same compound?
A: A (“A” indicates an IC50 ratio greater than or equal to 30 fold)

Q: `Cc1cc2cc(C(=O)N3C[C@@H](C)CC[C@@H]3c3ccc4sc(C5CCN(C)CC5)nc4c3)ccc2nc1N` [Compound 59, (2-amino-3-methylquinolin-6-yl)((2R,5S)-5-methyl-2-(2-(1-methylpiperidin-4-yl)benzo[d]thiazol-5-yl)piperidin-1-yl)methanone] was tested. Which IC50 [1] did it give?
A: < 0.1 µM

Q: And the IC50 [2]?
A: > 0.05 µM

Q: And the “Hap1 MTAP intact/deleted ratio” value [3]?
A: A (key: “A” indicates an IC50 ratio greater than or equal to 30 fold; “B” indicates an IC50 ratio greater than or equal to 15 fold but lower than 30 fold; “C” indicates an IC50 ratio of less than 15 fold)

Q: And the IC50 [3]?
A: < 0.005 µM

Q: What about the IC90 [3] of the same compound?
A: < 0.075 µM

Q: Which IC50 [1] does the source give for `COc1ncc(NC(=O)C(=O)N2C[C@@H](C)CC[C@@H]2c2ccc3sc(C4=C(C)CN(C)CC4)nc3c2)cc1C(N)=O` [Compound 61, 5-(2-((2R,5S)-2-(2-(1,5-dimethyl-1,2,3,6-tetrahydropyridin-4-yl)benzo[d]thiazol-5-yl)-5-methylpiperidin-1-yl)-2-oxoacetamido)-2-methoxynicotinamide] here?
A: < 0.1 µM

Q: And the IC50 [2, 7]?
A: > 0.05 µM

Q: What about the IC50 [3, 5] of the same compound?
A: < 0.005 µM

Q: What about the IC90 [3, 5] of the same compound?
A: < 0.075 µM

Q: What about the “Hap1 MTAP intact/deleted ratio” value [3, 6] of the same compound?
A: A (“A” indicates an IC50 ratio greater than or equal to 30 fold)

Q: `COc1ncc(NC(=O)C(=O)N2C[C@@H](C)CC[C@@H]2c2ccc3sc([C@@H](C)CN4CCCC4)nc3c2)cc1C(N)=O` [Compound 62, 2-methoxy-5-[[2-oxo-2-[(2R,5S)-5-methyl-2-[2-[(1S)-1-methyl-2-pyrrolidin-1-yl-ethyl]-1,3-benzothiazol-5-yl]-1-piperidyl]acetyl]amino]pyridine-3-carboxamide] was tested. Which IC50 [1] did it give?
A: < 0.1 µM

Q: What about the IC50 [2, 4] of the same compound?
A: > 0.05 µM

Q: And the IC50 [3, 5]?
A: < 0.005 µM

Q: And the IC90 [3, 5]?
A: < 0.075 µM

Q: What about the “Hap1 MTAP intact/deleted ratio” value [3, 6] of the same compound?
A: A (“A” indicates an IC50 ratio greater than or equal to 30 fold)
